Source: publication PMC5484485, “In vitro and in vivo effects of kisspeptin antagonists p234, p271, p354, and p356 on GPR54 activation” (PLoS ONE, 2017)
Square brackets hold non-standard residues; d marks the D form. Ends that are not written are not given here.

How the values were obtained:
[1] = tested on: LH pulses; conditions: intact and ovariectomized ewes; continuous intracerebroventricular; cited from earlier work
[2] = molecular target: T1, human GPR54 (Homo sapiens, UniProt Q969F8); experiment: Flow cytometric calcium flux assay, KP10-induced response after 15 min pre-incubation with antagonist; type: cell-based; set-up: host or cells: rat hematopoietic CHEM1 cells expressing endogenous Galpha15; conditions: all concentrations 10^-13 to 10^-5 M; 10^-8 M KP10; 15 min pre-incubation; P = 1.00
T1 sequence (Q969F8 whole entry): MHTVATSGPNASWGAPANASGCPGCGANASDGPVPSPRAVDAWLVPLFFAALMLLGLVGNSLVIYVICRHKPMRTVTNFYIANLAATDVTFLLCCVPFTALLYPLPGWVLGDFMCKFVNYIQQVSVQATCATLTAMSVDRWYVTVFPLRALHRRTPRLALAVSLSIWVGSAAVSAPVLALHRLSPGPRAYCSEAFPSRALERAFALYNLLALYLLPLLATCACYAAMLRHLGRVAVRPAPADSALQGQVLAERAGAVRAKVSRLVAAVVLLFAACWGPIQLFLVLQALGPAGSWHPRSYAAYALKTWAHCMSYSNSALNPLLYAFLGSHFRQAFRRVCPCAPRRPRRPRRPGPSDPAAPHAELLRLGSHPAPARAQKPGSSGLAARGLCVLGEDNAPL
Description: In vitro analyses of the effects of kisspeptin and kisspeptin antagonists, were performed using HT[…] cells (rat hematopoietic CHEM1 cells expressing endogenous Gα15 and, stably expressing the human GPR54 receptor (Millipore BV, the Netherlands), CHEM1-GPR54. Cells were counted and suspended in HBSS+++ at a concentration of 5*10^6 cells/ml. To load the cells with the fluorescent dye ester they were incubated in HBSS+++ adjusted to a concentration of 2 μM Fluo-3 AM (Molecular Probes, Life Technologies, the Netherlands) for 1h at 37°C under agitation in the dark. After incubation, the cells were washed by adding HBSS+++ to a volume of 10 ml followed by centrifugation (5 min, 150 x g) to remove excess of Fluo-3AM. […] Thereafter the tube was removed briefly and 25 μl peptide (see below) was added, after which aspiration and analysis continued. For statistical analyses fluorescent data recorded during the time interval 30-60 seconds after initiation of measurement were used. […] We then assessed whether these antagonists could compete with KP10 for its receptor. […] For this purpose 25 μl quantities of the antagonists were added to 200 μl of Fluo-3 AM labelled cells (10^6 cells/ml) and incubated for 15 min. […] Peptides p354 and p356 were tested three times with both human and canine KP10; while peptides p234 and p271 were tested three times with human KP10 and once with canine KP10. To analyze the effects of different concentrations of the KP antagonists on the calcium response due to KP10 addition, the differences in fluorescence before and after KP10 were calculated (the calcium response). The calcium response ratios were calculated as the calcium response of the CHEM1-GPR54 cells pre-incubated with different concentrations of KP antagonist and the control (the calcium response of the cells without KP antagonist). These calcium response ratios were log transformed and used for further analysis by univariate analysis of variance, with the Dunnett's test as post hoc test. The calcium response ratios were set as dependent variables and the different concentrations of the antagonists and the two types of KP10 were used as fixed factors. The residuals were normally distributed.

[3] = tested on: plasma LH concentration; conditions: bitches; anestrus, follicular phase, two stages of luteal phase; cited from earlier work
Description: Sensitivity to exogenous KP10 differs according to the stage of the reproductive cycle, as has been shown in rats, ewes, bitches, and women. In the bitch, the highest KP10-induced LH response was obtained during anestrus and the lowest was during the follicular phase. It is possible that the effects of a KP antagonist also differ among the cycle stages.

[4] = molecular target: T1, human GPR54; experiment: Flow cytometric calcium flux assay, response to peptide alone (agonist / intrinsic activity); type: cell-based; set-up: host or cells: rat hematopoietic CHEM1 cells expressing endogenous Galpha15; conditions: any tested concentration, 10^-13 to 10^-5 M; n = 3
Description: In vitro analyses of the effects of kisspeptin and kisspeptin antagonists, were performed using HT[…] cells (rat hematopoietic CHEM1 cells expressing endogenous Gα15 and, stably expressing the human GPR54 receptor (Millipore BV, the Netherlands), CHEM1-GPR54. Cells were counted and suspended in HBSS+++ at a concentration of 5*10^6 cells/ml. To load the cells with the fluorescent dye ester they were incubated in HBSS+++ adjusted to a concentration of 2 μM Fluo-3 AM (Molecular Probes, Life Technologies, the Netherlands) for 1h at 37°C under agitation in the dark. After incubation, the cells were washed by adding HBSS+++ to a volume of 10 ml followed by centrifugation (5 min, 150 x g) to remove excess of Fluo-3AM. […] Thereafter the tube was removed briefly and 25 μl peptide (see below) was added, after which aspiration and analysis continued. For statistical analyses fluorescent data recorded during the time interval 30-60 seconds after initiation of measurement were used. […] Experiments were performed 3 times. Representative flow cytometry results are depicted in Fig 1. […] We then assessed whether these antagonists could compete with KP10 for its receptor. […] For this purpose 25 μl quantities of the antagonists were added to 200 μl of Fluo-3 AM labelled cells (10^6 cells/ml) and incubated for 15 min. […] Peptides p354 and p356 were tested three times with both human and canine KP10; while peptides p234 and p271 were tested three times with human KP10 and once with canine KP10. […] A multivariate general linear model was set up to analyze differences in calcium response between the different concentrations, with Dunnett's test as a post hoc procedure for the antagonists and Bonferroni's test for the agonists.

[5] = tested on: circulating LH / puberty; conditions: cited from earlier work
Description: The development of kisspeptin antagonists contributed to an improved understanding of the role of kisspeptin in the reproductive system. Roseweir et al. developed several KP10 analogues and tested their effect on inositol phosphate (IP) release in Chinese hamster ovarian (CHO) cells stably expressing the human GPR54. […] The kisspeptin antagonists were administered intravenously in a dose of 50 μg/kg/h, and had no effect on either the basal plasma LH concentration during the continuous administration or on the KP10-induced LH response. These findings are in line with a previous study in female dogs. […] Adult male rats received an intrape ...

[6] = tested on: plasma LH concentration; experiment: Other studies with p271 up to 600 μg/kg/h in castrated male dogs and anestrous bitches (unpublished); type: in vivo, dog; conditions: doses of up to 600 μg/kg/h, unpublished data
Description: These doses also had no effect on plasma LH concentration in the castrated male dogs or on the KP10-induced LH response in the female dogs (unpublished data). It is therefore unlikely that the lack of antagonistic effects is related to the dose of 50 μg/kg/h used in the present study.

[7] = adult male rats, 5 nmol ip every hour for three hours

RRMKWKKY[dA]NWNGFG[dW]RF-NH2 [p271, p234 with a penetratin tag]
effect on LH pulses [1]: inhibited LH pulses
difference in calcium response ratio between controls and antagonist [2]: not significant
effect on basal plasma LH concentration, different stages of estrous cycle [3]: did not result in a decrease
intrinsic calcium response [4]: no significant intrinsic calcium response
KP10-induced LH response, KP10 intracerebroventricular [5, 7]: blunted
KP10-induced LH response, KP10 intraperitoneal [5, 7]: absent
effect on post-castration rise in circulating LH ([5]; male rats, repeated peripheral administration): could prevent the post-castration rise in circulating LH
effect on KP10-induced rise in plasma LH ([5]; mice and rats, repeated peripheral administration): blunted the KP10-induced rise in plasma LH concentration
effect on KP10-induced LH response in female dogs ([6]; anestrous bitches): had no effect
effect on plasma LH concentration in castrated male dogs [6]: had no effect
